Data on 4 compounds can be found in US4845079A, “Peptidylaminodiols” (priority 1988, dated 1989).

Structures can show the parent of a compound that is named as a salt.

The assay has as its target T1, human renal renin (Homo sapiens, UniProt P00797).
T1 construct: with human renal renin, free from acid proteolytic activity; from tissue; host or cells: human kidney (concluded from the word 'renal')
T1 sequence (P00797 67-406): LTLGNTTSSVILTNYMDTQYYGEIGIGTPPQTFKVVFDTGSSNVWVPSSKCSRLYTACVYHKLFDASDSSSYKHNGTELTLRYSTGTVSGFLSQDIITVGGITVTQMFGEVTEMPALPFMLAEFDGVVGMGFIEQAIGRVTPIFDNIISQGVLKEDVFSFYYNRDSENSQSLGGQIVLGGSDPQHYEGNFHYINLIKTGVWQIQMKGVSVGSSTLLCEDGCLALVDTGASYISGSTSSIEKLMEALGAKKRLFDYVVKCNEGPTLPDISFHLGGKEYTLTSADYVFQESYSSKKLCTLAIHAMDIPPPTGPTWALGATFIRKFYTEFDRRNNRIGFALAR
Nature of the assay: in vitro inhibition of human renal renin (angiotensin I formed measured by radioimmunoassay). It counts as biochemical. The note with it: human renal renin with renin substrate (human angiotensinogen), 37° C., pH 6.0.
On to `CC(C)C[C@H](O)[C@H](O)[C@H](CC1CCCCC1)NC(=O)[C@H](Cc1c[nH]cn1)NC(=O)[C@H](Cc1ccccc1)NC(=O)C(C)(C)CN` [Example 82, [(α, α-Di-Me)-β-Ala]-Phe-His Amide of 2(S)-Amino-1-cyclohexyl-3(R),4(S)-dihydroxy-6-methylheptane Bis acetic acid salt], for which the IC50 – broadly, the midpoint of a concentration-inhibition curve – is 0.6 nM.
The same measure for `CC(C)C[C@H](O)[C@H](O)[C@H](CC1CCCCC1)NC(=O)[C@H](Cc1cnc[nH]1)NC(=O)[C@H](Cc1ccccc1)NC(=O)C(C)(C)CNC(=O)OCc1ccccc1` [Example 81]: 0.6 nM; for `CCOC(=O)N[C@@H](Cc1ccccc1)C(=O)N(C)[C@@H](Cc1c[nH]cn1)C(=O)N[C@@H](CC1CCCCC1)[C@@H](O)[C@@H](O)CC(C)C` [Example 39, Ethoxycarbonyl-Phe-MeHis Amide of 2(S)-Amino-1-cyclohexyl-3(R),4(S)-dihydroxy-6-methylheptane]: 2 nM.
The same measure for `C[C@H](NC(=O)[C@H](Cc1ccccc1)NC(=O)OC(C)(C)C)C(=O)N[C@@H](CC1CCCCC1)C(O)CO` (stereo partly drawn) [Example 3, Boc-Phe-Ala Amide of 3(S)-Amino-4-cyclohexyl-1,2(R,S)-dihydroxybutane]: 4000 nM.
